Measured values as given in US20100286181A1, “PYRROLE DERIVATIVES WITH ANTIBACTERIAL ACTIVITY” (ASTRAZENECA AB, priority 2006, published 2010).
pIC50: −log10 of the molar value. Values after ≈ are worked out from the molar mass of the structure shown.

Legend:
[1] = biological target: GyrB ATPase activity (E. coli GyrA, E. coli GyrB) (Escherichia coli, UniProt P0AES6); assay: GyrB ATPase inhibition activity assay (ammonium molybdate/malachite green phosphate detection); format: biochemical; conditions: figure quoted may be an average of two or more results
Procedure, shortened: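 E. coli GyrA/GyrB (2.5 nM each) with 5 μg/ml sheared DNA and 250 μM ATP in 50 mM HEPES pH 7.5, 5.5 mM MgCl2, 75 mM ammonium acetate. Released phosphate detected with ammonium molybdate/malachite green reagent. IC50 may be an average of two or more results.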

EFM073 = assay: Bacterial susceptibility testing in liquid media (MIC), EFM073; format: cell-based; conditions: strain EFM073
Text: (§1) Compounds may be tested for antimicrobial activity by susceptibility testing in liquid media. Compounds may be dissolved in dimethylsulfoxide and tested in 10 doubling dilutions in the susceptibility assays. The organisms used in the assay may be grown overnight on suitable agar media and then suspended in a liquid medium appropriate for the growth of the organism. The can be was a 0.5 McFarland and a further 1 in 10 dilution can be made into the same liquid medium to prepare the final organism suspension in 100 pt. Plates can be incubated under appropriate conditions at 37° C. for 24 hrs prior to reading. The Minimum Inhibitory Concentration (MIC) may be determined as the lowest drug concentration able to reduce growth by 80% or more.

SPN548 = assay: Bacterial susceptibility testing in liquid media (MIC), SPN548; format: cell-based; conditions: strain SPN548
Text: as §1

MCA445 = assay: Bacterial susceptibility testing in liquid media (MIC), MCA445; format: cell-based; conditions: strain MCA445
Text: as §1

HIN446 = assay: Bacterial susceptibility testing in liquid media (MIC), HIN446; format: cell-based; conditions: strain HIN446
Text: as §1

SAU516 = assay: Bacterial susceptibility testing in liquid media (MIC), SAU516; format: cell-based; conditions: strain SAU516
Text: as §1

Streptococcus pneumoniae = assay: Bacterial susceptibility testing in liquid media (MIC), Streptococcus pneumoniae; format: cell-based; conditions: against Streptococcus pneumoniae; lowest concentration reducing growth by 80% or more, 37° C., 24 hrs
Text: as §1

SMILES | pIC50 [1] | MIC EFM073 (EFM073) [µg/mL] | MIC SPN548 (SPN548) [µg/mL] | MIC MCA445 (MCA445) [µg/mL] | MIC HIN446 (HIN446) [µg/mL] | MIC SAU516 (SAU516) [µg/mL] | MIC (Streptococcus pneumoniae) [µg/mL]
Cc1[nH]c(C(=O)NC2CCN(c3ncc(C(=O)O)s3)CC23OCCCO3)c(Cl)c1Cl (stereo not shown) [Example 16, 2-(11-{[(3,4-Dichloro-5-methyl-1H-pyrrol-2-yl)carbonyl]amino}-1,5-dioxa-8-azaspiro[5.5]undec-8-yl)-1,3-thiazole-5-carboxylic acid] | > 8.01 | 1 (≈ 2.1 µM) | < 0.063 | 0.13 (≈ 0.273 µM) | 1 (≈ 2.1 µM) | 2 (≈ 4.21 µM) | 
COC1(OC)CN(c2ncc(C(=O)O)s2)CCC1NC(=O)c1[nH]c(C)c(Cl)c1Cl (stereo not shown) [Example 20, 2-(4-{[(3,4-Dichloro-5-methyl-1H-pyrrol-2-yl)carbonyl]amino}-3,3-dimethoxypiperidin-1-yl)-1,3-thiazole-5-carboxylic acid] | > 7.17 | 2 (≈ 4.32 µM) | 0.13 (≈ 0.281 µM) | 0.5 (≈ 1.08 µM) | 1 (≈ 2.16 µM) | 2 (≈ 4.32 µM) | 
CNC(=O)c1nc(N2CCC(NC(=O)c3[nH]c(C)c(Cl)c3Cl)C3(C2)OCCCO3)sc1C(=O)O (stereo not shown) [Example 18, 2-(11-{[(3,4-Dichloro-5-methyl-1H-pyrrol-2-yl)carbonyl]amino}-1,5-dioxa-8-azaspiro[5.5]undec-8-yl)-4-[(methylamino)carbonyl]-1,3-thiazole-5-carboxylic acid] | > 8.01 | 0.25 (≈ 0.47 µM) | < 0.063 | < 0.063 | 0.5 (≈ 0.939 µM) | 0.25 (≈ 0.47 µM) | 
COC(=O)c1cnc(N2CCC(NC(=O)c3[nH]c(C)c(Cl)c3Cl)C3(C2)OCCO3)s1 (stereo not shown) [Example 1, Methyl 2-(10-{[(3,4-dichloro-5-methyl-1H-pyrrol-2-yl)carbonyl]amino}-1,4-dioxa-7-azaspiro[4.5]dec-7-yl)-1,3-thiazole-5-carboxylate] | 6.33 |  |  |  |  |  | 1 (≈ 2.1 µM)
COC(=O)c1cnc(N2CCC(NC(=O)c3[nH]c(C)c(Cl)c3Cl)C3(C2)OCC(C)(C)CO3)s1 (stereo not shown) [Example 64, Methyl 2-(11-{[(3,4-dichloro-5-methyl-1H-pyrrol-2-yl)carbonyl]amino}-3,3-dimethyl-1,5-dioxa-8-azaspiro[5.5]undec-8-yl)-1,3-thiazole-5-carboxylate] | 6.81 |  |  |  |  |  | 
COCn1ccnc1-c1nc(N2CCC(NC(=O)c3[nH]c(C)c(Cl)c3Cl)/C(=N/OC)C2)sc1C(=O)O (stereo not shown) [Example 28, 2-[(3E)-4-{[(3,4-Dichloro-5-methyl-1H-pyrrol-2-yl)carbonyl]amino}-3-(methoxyimino)piperidin-1-yl]-4-[1-(methoxymethyl)-1H-imidazol-2-yl]-1,3-thiazole-5-carboxylic acid] | > 8.01 |  |  |  |  |  | 
